IC50 and selectivity ratio data for 14 compounds are collected here from ChEMBL document CHEMBL5385857, “Optimization and SAR research at the benzoxazole and tetrazole rings of JNJ4796 as new anti-influenza A virus agents, part 2” (Eur J Med Chem, 2023).

Data set [1] deals with Influenza A virus. Put plainly: Antiviral activity against oseltamivir-resistant influenza A virus H1N1 clinical isolate IAV/Tianjin Jinnan/15/2009 infected in MDCK cells. In kind it is functional, organism-based. The conditions noted are these: H1N1(IAV/Tianjin Jinnan/15/2009).
Data set [2] can be described thus: Selectivity index, ratio of CC50 for MDCK cells to IC50 for oseltamivir-resistant influenza A virus H1N1 clinical isolate IAV/Tianjin Jinnan/15/2009 infected in MDCK cells. In kind it is toxicity, cell-based. The conditions noted are these: dog, read-out: Ratio CC50/IC50.

SMILES strings stand for the structures.

In general, IC50 refers to the midpoint of a concentration-inhibition curve. A higher IC50 goes with a need for much substance. In data set [1], `CC(=O)Nc1ccc2oc(-c3ccnc(C(=O)N4CCN([C@H](c5ccc(F)cc5)c5nnn(C6CCCC6)n5)CC4)c3)nc2c1` returned an IC50 of 440 nM. Besides, the selectivity ratio in data set [2] was 198.

`CC(=O)Nc1ccc2oc(-c3ccnc(C(=O)N4CCN([C@@H](c5ccc(F)cc5)c5nnn(CCC(C)C)n5)CC4)c3)nc2c1` displayed an IC50 in data set [1] of 11700 nM. Further, the selectivity ratio in data set [2] is more than 8.

With `CC(=O)Nc1ccc2oc(-c3ccnc(C(=O)N4CCN([C@@H](c5ccccc5)c5nnn(C(C)C)n5)CC4)c3)nc2c1`, half-maximal inhibition in data set [1] (IC50) required 1510 nM. Moreover, the selectivity ratio in data set [2] was more than 66.

For `CC(=O)Nc1ccc2oc(-c3ccnc(C(=O)N4CCN([C@@H](c5ccc(F)cc5)c5nnn(C(C)C)n5)CC4)c3)nc2c1`, half-maximal inhibition in data set [1] (IC50) required 2290 nM. Also, the selectivity ratio in data set [2] is more than 43.

The compound `CC(=O)Nc1ccc2oc(-c3ccnc(C(=O)N4CCN([C@@H](c5ccc(F)cc5)c5nnn(C6CCCC6)n5)CC4)c3)nc2c1` displayed a half-inhibitory concentration (IC50) in data set [1] of 2460 nM. The selectivity ratio in data set [2] stood at 39.

Compound `C=Cn1nnc([C@H](c2ccc(F)cc2)N2CCN(C(=O)c3cc(-c4nc5cc(NC(C)=O)ccc5o4)ccn3)CC2)n1` gave a 50% inhibitory concentration (IC50) in data set [1] of 6860 nM. Further, the selectivity ratio in data set [2] was more than 14.5.

For `CCCCn1nnc([C@H](c2ccc(F)cc2)N2CCN(C(=O)c3cc(-c4nc5cc(NC(C)=O)ccc5o4)ccn3)CC2)n1`, the IC50 in data set [1] turned out to be 4850 nM. For the same compound, the selectivity ratio in data set [2] is more than 20.

`CC(=O)Nc1ccc2oc(-c3ccnc(C(=O)N4CCN([C@H](c5ccc(F)cc5)c5nnn(C(C)C)n5)CC4)c3)nc2c1`: in data set [1], half-maximal inhibition (IC50) was put at 70 nM. Also, in data set [2], the selectivity ratio is more than 1430.

For `CC(=O)Nc1ccc2oc(-c3ccnc(C(=O)N4CCN([C@H](c5ccc(F)cc5)c5nnn(CCC(C)C)n5)CC4)c3)nc2c1`, the half-maximal inhibitory concentration (IC50) in data set [1] was 730 nM. In data set [2], the selectivity ratio is more than 136.

On to `CCC(CC)n1nnc([C@@H](c2ccc(F)cc2)N2CCN(C(=O)c3cc(-c4nc5cc(NC(C)=O)ccc5o4)ccn3)CC2)n1`, for which the IC50 in data set [1] stood at 220 nM. For the same compound, the selectivity ratio in data set [2] was more than 454.

In the case of `CCC(CC)n1nnc([C@H](c2ccc(F)cc2)N2CCN(C(=O)c3cc(-c4nc5cc(NC(C)=O)ccc5o4)ccn3)CC2)n1`, the 50% inhibitory concentration (IC50) in data set [1] is 960 nM. In addition, the selectivity ratio in data set [2] was more than 104.

For the compound `CCCCn1nnc([C@@H](c2ccc(F)cc2)N2CCN(C(=O)c3cc(-c4nc5cc(NC(C)=O)ccc5o4)ccn3)CC2)n1`, the half-inhibitory concentration (IC50) in data set [1] is 220 nM. Moreover, the selectivity ratio in data set [2] is more than 454.

Compound `CC(=O)Nc1ccc2oc(-c3ccnc(C(=O)N4CCN([C@H](c5ccccc5)c5nnn(C(C)C)n5)CC4)c3)nc2c1` yielded an IC50 in data set [1] of 70 nM. Besides, the selectivity ratio in data set [2] is more than 1430.

Consider `C=Cn1nnc([C@@H](c2ccc(F)cc2)N2CCN(C(=O)c3cc(-c4nc5cc(NC(C)=O)ccc5o4)ccn3)CC2)n1`, for which the IC50 in data set [1] stood at 90 nM. Also, the selectivity ratio in data set [2] is more than 196.
